Data from patent US9763960B2, “Wafer comprising steroid hormones” (LTS Lohmann Theraple-Systeme AG, priority 2005, dated 2017).

Assay: i.v. administration of 0.5 mg MENT (reference for bioavailability)
Assay type: in vivo
Conditions: after i.v. admin. of 0.5 mg MENT

C[C@@H]1CC2=CC(=O)CC[C@@H]2[C@H]2CC[C@]3(C)[C@@H](O)CC[C@H]3[C@@H]21 [MENT, 7α-methyl-19-nortestosterone]
AUC(0-tlast) geomean dose-normalized: 4.98 ng·h/mL
